Experimental findings from patent US9695165B2, “Inhibitors of the fibroblast growth factor receptor” (BLUEPRINT MEDICINES CORPORATION, priority 2014, dated 2017) are described below.

Experiment [1] concerns pMAPK (Thr202/Tyr204) in MDA-MB453 cells. Kind of experiment: Detection of pMAPK (Thr202/Tyr204) using Alpha Elisa (pERK alphaLISA) in MDA-MB453 cells. The following applies: Homo sapiens, MDA-MB-453, 1 hr incubation with compound. It is filed as cell-based. A general note: In Alpha technology, singlet oxygen from a donor bead excites a nearby acceptor bead.
Description: MDA-MB453 cells were plated in 96-well cell culture plates at a density of 1×10^5 cells. Cells were allowed to attach, and growth media was replaced with serum free media. Compounds were added at the indicated concentrations. Following 1 hr incubation in the presence of compound, cells were collected. Cell lysates were prepared and processed according to manufacturer instruction (AlphaScreen® SureFire™ Phospho-ERK 1/2 Kit (Perkin Elmer).
The target in experiment [2] is wild type FGFR-4 (Homo sapiens (Human), UniProt P22455). Nature of the experiment: FGFR-4 wild type assay at Km (Caliper electrophoretic mobility shift). It is filed as biochemical. As to conditions: wild type FGFR-4, 400 uM ATP, 25 C, 90 minutes; read-out: FGFR4 IC50. How it is done: In order to assess the activity of chemical compounds against the relevant kinase of interest, the Caliper LifeSciences electrophoretic mobility shift technology platform is utilized. Fluorescently labeled substrate peptide is incubated in the presence of dosed levels of compounds, a set concentration of kinase and of ATP, so that a reflective proportion of the peptide is phosphorylated. At the end of the reaction, the mix of phosphorylated (product) and non-phosphorylated (substrate) peptides are passed through the microfluidic system of the Caliper LabChip® EZ Reader II, under an applied potential difference. The presence of the phosphate group on the product peptide provides a difference in mass and charge between the product peptide and the substrate peptide, resulting in a separation of the substrate and product pools in the sample. As the pools pass the LEDS within the instrument, these pools are detected and resolved as separate peaks. The ratio between these peaks therefore reflects the activity of the chemical matter at that concentration in that well, under those conditions.
The reaction was stopped by the addition of 70 ul of Stop buffer (100 mM HEPES pH 7.5, 0.015% Brij 35, 35 mM EDTA and 0.2% of Coating Reagent 3 (Caliper Lifesciences)). The plate was then read on a Caliper LabChip® EZ Reader II (protocol settings: −1.9 psi, upstream voltage −700, downstream Voltage −3000, post sample sip 35S).

Molecules are shown by their SMILES. Some results are limits rather than exact numbers.

What is called IC50 is the concentration needed to halve the response being measured.

Sequence of wild type FGFR-4 (P22455 22-802): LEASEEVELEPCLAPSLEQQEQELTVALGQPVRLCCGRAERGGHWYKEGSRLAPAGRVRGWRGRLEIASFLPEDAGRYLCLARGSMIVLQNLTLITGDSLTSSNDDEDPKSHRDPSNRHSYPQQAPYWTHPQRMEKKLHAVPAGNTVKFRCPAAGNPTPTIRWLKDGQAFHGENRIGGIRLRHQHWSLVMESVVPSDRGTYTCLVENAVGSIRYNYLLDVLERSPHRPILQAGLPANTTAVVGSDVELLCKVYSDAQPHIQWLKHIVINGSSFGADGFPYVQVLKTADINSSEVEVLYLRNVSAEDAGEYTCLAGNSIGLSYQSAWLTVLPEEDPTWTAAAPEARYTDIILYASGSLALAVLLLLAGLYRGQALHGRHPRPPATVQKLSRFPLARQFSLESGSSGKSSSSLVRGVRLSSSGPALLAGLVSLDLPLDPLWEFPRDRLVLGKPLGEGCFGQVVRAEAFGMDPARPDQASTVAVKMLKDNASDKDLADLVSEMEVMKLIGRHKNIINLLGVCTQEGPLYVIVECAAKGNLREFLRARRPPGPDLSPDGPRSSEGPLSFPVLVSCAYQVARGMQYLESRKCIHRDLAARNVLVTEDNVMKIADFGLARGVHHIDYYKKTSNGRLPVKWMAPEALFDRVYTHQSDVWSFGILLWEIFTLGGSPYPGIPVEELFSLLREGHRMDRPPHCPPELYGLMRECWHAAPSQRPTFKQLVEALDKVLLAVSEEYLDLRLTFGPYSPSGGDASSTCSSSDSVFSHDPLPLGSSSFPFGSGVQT

Take `C=CC(=O)N1CC(C)(C)Oc2ccc(-c3cc4c(cn3)cc(-c3c(Cl)c(OC)cc(OC)c3Cl)c(=O)n4CC)cc21` [Compound 52]: in experiment [1], the IC50 lay within 10 to 100 nM.

On to `C=CC(=O)N1CCOc2ccc(-c3cc4c(cn3)cc(-c3c(Cl)c(OC)cc(OC)c3Cl)c(=O)n4C3CCCC3)cc21` [Compound 54], for which the IC50 in experiment [2] fell in the range of 10 to 100 nM.

Regarding `C=CC(=O)N1CCOc2ccc(-c3ncc4cc(-c5c(Cl)c(OC)cc(OC)c5Cl)c(OC)cc4n3)cc21` [Compound 36], in experiment [2], the IC50 was 10 to 100 nM.

Turning to `C=CC(=O)N1CCOc2ccc(-c3cc4c(cn3)cc(-c3c(Cl)c(OC)cc(OC)c3Cl)c(=O)n4CC)cc21` [Compound 47], the IC50 in experiment [1] is 10 to 100 nM; in experiment [2] it was < 10 nM.

Consider `C=CC(=O)Nc1ccc(F)c(-c2cc3c(cn2)cc(-c2c(Cl)c(OC)cc(OC)c2Cl)c(=O)n3C(C)C)c1` [Compound 40], for which the IC50 in experiment [1] and in experiment [2] was < 10 nM throughout.

For the molecule `C=CC(=O)Nc1cc(F)c(F)c(-c2cc3c(cn2)cc(-c2c(Cl)c(OC)cc(OC)c2Cl)c(=O)n3CC)c1` [Compound 41], the IC50 in experiment [2] is < 10 nM.

As for `C=CC(=O)Nc1ccc(C)c(-c2cc3c(cn2)CN(c2c(Cl)c(OC)cc(OC)c2Cl)C(=O)N3CC)c1` [Compound 29], the concentration for half-maximal inhibition (IC50) in experiment [2] lay in the range of 10 to 100 nM.

Turning to `C=CC(=O)N1CCOc2ccc(-c3cc4c(cn3)CN(c3c(Cl)c(OC)cc(OC)c3Cl)C(=O)N4CC)cc21` [Compound 50], the IC50 in experiment [1] was 10 to 100 nM; in experiment [2] it was < 10 nM.

For `CCn1c(=O)c(-c2c(Cl)c(OC)cc(OC)c2Cl)cc2cnc(-c3cccc(NC(=O)/C=C/CN(C)C)c3)cc21` [Compound 51], in experiment [2], the IC50 is 10 to 100 nM.

With `C=CC(=O)N1CCOc2ccc(-c3cc4c(cn3)cc(-c3c(Cl)c(OC)cc(OC)c3Cl)c(=O)n4C)cc21` [Compound 37], in experiment [2], the concentration for half-maximal inhibition (IC50) was < 10 nM.

Turning to `C=CC(=O)N1CCOc2cc(C)c(-c3ncc4cc(-c5c(Cl)c(OC)cc(OC)c5Cl)ccc4n3)cc21` [Compound 24], the IC50 in experiment [1] and in experiment [2] was 10 to 100 nM each time.

Turning to `C=CC(=O)Nc1ccc(C)c(-c2ncc3cc(-c4c(Cl)c(OC)cc(OC)c4Cl)ccc3n2)c1` [Compound 5], the half-inhibitory concentration (IC50) in experiment [2] was > 1000 nM.

Consider `C=CC(=O)N1CCc2ccc(-c3ncc4cc(-c5c(Cl)c(OC)cc(OC)c5Cl)ccc4n3)cc21` [Compound 11], for which, in experiment [2], the IC50 fell in the range of 10 to 100 nM.

In the case of `C=CC(=O)Nc1ccc(F)c(-c2cc3c(cn2)cc(-c2c(F)c(OC)cc(OC)c2F)c(=O)n3C(C)C)c1` [Compound 17], the IC50 in experiment [1] and in experiment [2] was < 10 nM throughout.

For the molecule `C=CC(=O)N1c2cc(-c3ncc4cc(-c5c(Cl)c(OC)cc(OC)c5Cl)ccc4n3)c(F)cc2OCC1C` (stereo not drawn) [Compound 38], in experiment [2], the IC50 lay within 10 to 100 nM.

Take `C=CC(=O)Nc1ccccc1-c1cc2ccc(-c3c(Cl)c(OC)cc(OC)c3Cl)cc2cn1` [Compound 1]: in experiment [2], the IC50 lay in the range of 100 to 1000 nM.

In the case of `C=CC(=O)Nc1ccc(F)c(-c2cc3c(cn2)cc(-c2cc(OC)cc(OC)c2Cl)c(=O)n3CC)c1` [Compound 12], the IC50 in experiment [1] and in experiment [2] was < 10 nM throughout.

In the case of `C=CC(=O)N1CCOc2ccc(-c3ncc4cc(-c5c(Cl)c(OC)cc(OC)c5Cl)ccc4n3)cc21` [Compound 16], the half-maximal inhibitory concentration (IC50) in experiment [2] was in the range of 10 to 100 nM.

As for `C=CC(=O)Nc1ccccc1-c1cc2c(cn1)cc(-c1cc(C(=O)NOC)ccc1Cl)c(=O)n2CC` [Compound 9], the IC50 in experiment [1] was 10 to 100 nM; in experiment [2], < 10 nM.

Turning to `C=CC(=O)Nc1ccc(F)c(-c2ncc3cc(-c4c(Cl)c(OC)cc(OC)c4Cl)c(=O)n(CC)c3n2)c1` [Compound 30], in experiment [1], the IC50 is < 10 nM.

As for `C=CC(=O)Nc1ccccc1-c1cc2c(cn1)cc(-c1c(Cl)c(OC)cc(OC)c1Cl)c(=O)n2C(C)C` [Compound 25], the IC50 in experiment [1] is 10 to 100 nM; in experiment [2], < 10 nM.

`C=CC(=O)Nc1ccc(F)c(-c2cc3c(cn2)cc(-c2c(F)c(OC)cc(OC)c2Cl)c(=O)n3CC)c1` [Compound 21]: the IC50 in experiment [1] and in experiment [2] was < 10 nM each time.

Regarding `C=CC(=O)N1CC(C)(C)Oc2cc(C)c(-c3ncc4cc(-c5c(Cl)c(OC)cc(OC)c5Cl)ccc4n3)cc21` [Compound 44], the IC50 in experiment [2] was 10 to 100 nM.

As to `C=CC(=O)Nc1ccccc1-c1ncc2cc(-c3c(Cl)c(OC)cc(OC)c3Cl)ccc2n1` [Compound 2], in experiment [2], the IC50 fell in the range of 100 to 1000 nM.

Regarding `C=CC(=O)N(C)c1cccc(-c2ncc3cc(-c4c(Cl)c(OC)cc(OC)c4Cl)ccc3n2)c1` [Compound 6], the half-inhibitory concentration (IC50) in experiment [2] was > 1000 nM.

For `C=CC(=O)Nc1ccc(F)c(-c2ncc3cc(-c4c(Cl)c(OC)cc(OC)c4Cl)c(=O)n(CC)c3n2)c1` [Compound 31], the half-inhibitory concentration (IC50) in experiment [2] was in the range of 10 to 100 nM.

As to `C=CC(=O)N1CCOc2ccc(-c3ncc4cc(-c5c(Cl)c(OC)cc(OC)c5Cl)c(=O)n(C5CCCC5)c4n3)cc21` [Compound 55], in experiment [2], the IC50 fell in the range of 10 to 100 nM.

Take `C=CC(=O)Nc1cccc(-c2ncc3cc(-c4c(Cl)c(OC)cc(OC)c4Cl)ccc3n2)c1` [Compound 3]: in experiment [2], the IC50 was > 1000 nM.

As for `C=CC(=O)Nc1ccc(C)c(-c2cc3c(cn2)cc(-c2c(Cl)c(OC)cc(OC)c2Cl)c(=O)n3CC)c1` [Compound 27], the IC50 in experiment [1] and in experiment [2] was 10 to 100 nM in each case.

Turning to `C=CC(=O)Nc1cccc(-c2cc3c(cn2)CN(c2c(Cl)c(OC)cc(OC)c2Cl)C(=O)N3CC)c1` [Compound 22], the IC50 in experiment [1] and in experiment [2] was 10 to 100 nM each time.

Regarding `C=CC(=O)Nc1ccccc1-c1ncc2cc(-c3c(Cl)c(OC)cc(OC)c3Cl)c(=O)n(C3CCCC3)c2n1` [Compound 46], the 50% inhibitory concentration (IC50) in experiment [2] lay in the range of 10 to 100 nM.

As to `C=CC(=O)Nc1cc(OC(C)C)cc(-c2cc3c(cn2)cc(-c2c(Cl)c(OC)cc(OC)c2Cl)c(=O)n3C)c1` [Compound 49], the IC50 in experiment [2] was 10 to 100 nM.

On to `C=CC(=O)N1CC(C)(C)Oc2cc(F)c(-c3ncc4cc(-c5c(Cl)c(OC)cc(OC)c5Cl)ccc4n3)cc21` [Compound 48], for which the IC50 in experiment [2] fell in the range of 10 to 100 nM.

As to `C=CC(=O)N1CCC(C)(C)c2ccc(-c3ncc4cc(-c5c(Cl)c(OC)cc(OC)c5Cl)ccc4n3)cc21` [Compound 33], the IC50 in experiment [2] is 100 to 1000 nM.

Take `C=CC(=O)N(C)c1ccccc1-c1cc2c(cn1)cc(-c1c(Cl)c(OC)cc(OC)c1Cl)c(=O)n2CC` [Compound 26]: the IC50 in experiment [2] was 10 to 100 nM.

With `C=CC(=O)Nc1ccc(F)c(-c2cc3c(cn2)cc(-c2cc(OC)cc(OC)c2)c(=O)n3C(C)C)c1` [Compound 4], the IC50 in experiment [1] fell in the range of 100 to 1000 nM; in experiment [2], 10 to 100 nM.

Regarding `C=CC(=O)N1CCOc2ccc(-c3cc4c(cn3)nc(-c3c(Cl)c(OC)cc(OC)c3Cl)c(=O)n4C3CCCC3)cc21` [Compound 56], the IC50 in experiment [2] was < 10 nM.

For the molecule `C=CC(=O)Nc1ccc(F)c(-c2cc3c(cn2)cc(-c2cc(OC)cc(OC)c2F)c(=O)n3C(C)C)c1` [Compound 10], the IC50 is 10 to 100 nM in experiment [1] and < 10 nM in experiment [2].

With `C=CC(=O)Nc1ccc(F)c(-c2cc3c(cn2)cc(-c2c(Cl)c(OC)cc(OC)c2Cl)c(=O)n3C)c1` [Compound 23], the IC50 in experiment [1] is 10 to 100 nM; in experiment [2], < 10 nM.

For the molecule `C=CC(=O)N1CCCc2ccc(-c3cc4c(cn3)cc(-c3c(Cl)c(OC)cc(OC)c3Cl)c(=O)n4CC)cc21` [Compound 45], the IC50 in experiment [2] was < 10 nM.

For `C=CC(=O)Nc1ccccc1-c1cc2c(cn1)cc(-c1c(Cl)c(OC)cc(OC)c1Cl)c(=O)n2CC` [Compound 19], the IC50 in experiment [1] is 10 to 100 nM; in experiment [2], < 10 nM.

Turning to `C=CC(=O)N1CCOc2cc(F)c(-c3ncc4cc(-c5c(Cl)c(OC)cc(OC)c5Cl)ccc4n3)cc21` [Compound 28], the IC50 is 10 to 100 nM in experiment [1] and < 10 nM in experiment [2].

For the molecule `C=CC(=O)Nc1cccc(-c2cc3c(cn2)cc(-c2c(Cl)c(OC)cc(OC)c2Cl)c(=O)n3CC)c1` [Compound 20], the concentration for half-maximal inhibition (IC50) in experiment [1] and in experiment [2] was < 10 nM throughout.

Regarding `C=CC(=O)N1c2cc(-c3cc4c(cn3)cc(-c3c(Cl)c(OC)cc(OC)c3Cl)c(=O)n4CC)c(F)cc2OCC1C` (stereo not drawn) [Compound 53], the figures for the IC50 in experiment [1] and in experiment [2] were 10 to 100 nM and < 10 nM, respectively.

Regarding `C=CC(=O)N1CCc2ccc(-c3ncc4cc(-c5c(Cl)c(OC)cc(OC)c5Cl)c(=O)n(CC)c4n3)cc21` [Compound 35], the IC50 in experiment [1] was in the range of 10 to 100 nM.

As to `C=CC(=O)Nc1ccc(F)c(-c2cc3c(cn2)CN(c2c(Cl)c(OC)cc(OC)c2Cl)C(=O)N3CC)c1` [Compound 32], the IC50 in experiment [1] was 10 to 100 nM; in experiment [2] it was < 10 nM.

Turning to `C=CC(=O)N1CC(C)(C)Oc2ccc(-c3ncc4cc(-c5c(Cl)c(OC)cc(OC)c5Cl)ccc4n3)cc21` [Compound 34], the IC50 in experiment [1] and in experiment [2] was 10 to 100 nM each time.

`C=CC(=O)Nc1cccc(F)c1-c1ncc2cc(-c3c(Cl)c(OC)cc(OC)c3Cl)ccc2n1` [Compound 7]: the IC50 in experiment [1] was 100 to 1000 nM.

On to `C=CC(=O)Nc1ccccc1-c1ncc2cc(-c3c(Cl)c(OC)cc(OC)c3Cl)c(OC)cc2n1` [Compound 15], for which the IC50 in experiment [2] was 100 to 1000 nM.

On to `C=CC(=O)N1CCc2cc(F)c(-c3ncc4cc(-c5c(Cl)c(OC)cc(OC)c5Cl)ccc4n3)cc21` [Compound 18], for which the half-inhibitory concentration (IC50) in experiment [1] is 10 to 100 nM; in experiment [2], < 10 nM.

On to `C=CC(=O)Nc1cccc(-c2ncc3cc(-c4c(Cl)c(OC)cc(OC)c4Cl)cc(OC)c3n2)c1` [Compound 13], for which the IC50 in experiment [2] was 100 to 1000 nM.
